# Legend:
# Format in all cases: in vivo, Sprague Dawley rats
# [1] = system: balloon catheter-injured carotid arteries; experiment: Balloon catheter injury of the carotid artery: development of intimal hyperplasia (I/M ratio); settings: for I/M ratio of representative micrograph (single animal): 21 days after injury; for I/M (intimal/medial ratio), group mean: three weeks after catheter injury
# Experimental: (§1) Ten-week-old female Sprague Dawley rats were obtained from Harlan Laboratories (Indianapolis, Ind.). After an acclimatization period of one week, they were fed a powdered control diet with or without methionine for one week. After one week on the normal or methionine diet, an aqueous preparation rosiglitazone (3.0 mg/kg/d) or vehicle was administered by gavage. The methionine diet was prepared with 10 g of L-methionine obtained from Sigma Chemical Company in St. Louis, Miss., added to 10 kg of powdered feed and thoroughly mixed. The rats were divided into four groups (n=7/group) and fed a) control diet; b) control diet with administration of rosiglitazone; c) methionine diet; and d) methionine diet with rosiglitazone.
# Balloon catheter injury of to the carotid artery was induced as previously published (27). Briefly, a 2.0 mm PTCA obtained from Boston Scientific, Inc. in Quincy, Mass. was introduced through the femoral artery to the left carotid. The balloon was inflated to 4 atmospheres for 20 seconds and then deflated to 2 atmospheres and dragged down to the aorta. The animals were continued on their respective diets and rosiglitazone treatment was continued as indicated for three weeks after the surgery. The surgical procedures were conducted under anesthesia in a totally aseptic atmosphere. All rats had free access to the feed and water, and were maintained in a 12 hour day/light cycle.
# The carotid arteries were separated and flushed with zinc buffered formalin. Each artery was cut from top into 4 equal segments and placed sequentially for embedding in paraffin. Sections no thicker then 6 um were cut and stained with hemotoxalin and eosin for microscopy. All four segments were read and the intimal/medial (I/M) ratio was calculated using Image-Pro software (NIH). The mean of the I/M ratios of the 4 sections reflected the I/M for one animal.
# [2] = Serum homocysteine levels by high pressure liquid chromatography
# Experimental: as §1
# (§2) Before the beginning of the experiment, and at the time of sacrificing the animal a blood sample was obtained from each rat. At the end of the experiment, rats were sacrificed using a carbon dioxide chamber for harvesting tissues. Samples of blood and liver were collected and immediately processed. The serum and liver samples were stored frozen.
# (§3) The Hcy levels were measured by high pressure liquid chromatography according to an established method (28,29). Cystathionine-β-synthase (CβS) was assayed in the liver samples, and the procedure followed was as previously published (26).
# [3] = system: cystathionine-β-synthase (CβS); experiment: Cystathionine-β-synthase activity assayed in liver samples of treated rats; settings: methionine diet with rosiglitazone, methionine diet alone 0.35+/−0.05
# Experimental: as §1, §2, §3
smiles,measurement,setting,value
CN(CCOc1ccc(CC2SC(=O)NC2=O)cc1)c1ccccn1 (stereo not drawn) [rosiglitazone],I/M ratio of representative micrograph (single animal),[1]; FIG. 1 micrograph C: control diet with rosiglitazone,0.19
same,I/M ratio of representative micrograph (single animal),[1]; FIG. 1 micrograph D: methionine diet with rosiglitazone,0.17
same,"I/M (intimal/medial ratio), group mean","[1]; control diet with rosiglitazone 3.0 mg/kg/d by gavage, control diet alone 0.18+/−0.05",0.21+/−0.03
same,"I/M (intimal/medial ratio), group mean","[1]; methionine diet with rosiglitazone 3.0 mg/kg/d by gavage, methionine diet alone 0.82+/−0.21",0.28+/−0.12
same,"I/M (intimal/medial ratio), group mean","[1]; methionine diet with rosiglitazone 3.0 mg/kg/d by gavage, methionine diet alone 0.82+/−0.21, listed as Rosiglitazone",0.27+/−0.12
same,serum homocysteine level,"[2]; control diet with rosiglitazone, control diet alone 6.3+/−0.04 μM",5.1 ± 0.6 µM
same,homocysteine level,[2]; methionine diet with rosiglitazone treatment (background summary),16.4 ± 1.7 µM
same,serum homocysteine concentration,"[2]; methionine diet with rosiglitazone, methionine diet alone 28.9+/−3.2 μM",16.4 ± 1.7 µM
same,CβS activity,[3],0.57+/−0.1 μmoles/mg protein
